Publication PMC2806030, “Inhibition of mammalian S6 kinase by resveratrol suppresses autophagy” (Aging (Albany NY), 2009)

How the values were obtained:
Experiment in all cases: biochemical
Design in all cases: Upstate KinaseProfiler in vitro kinase activity assay, per cent of DMSO control
Conditions in all cases: read-out: Activity (% of Control)
TBK1(h) = TBK1(h) (Homo sapiens, UniProt Q9UHD2)
Method: (§1) Kinase profile and kinase assay. A Kinase profile against 100 kinases listed for resveratrol at 20 μM was generated utilizing Upstate's KinaseProfiler™ service. Assay protocols for each kinase are available from Upstate (Lake Placid, NY). In vitro kinase assay was performed as described previously. Briefly, HEK293 cells were transfected with HA-S6K1 wt, HA-S6K1 K100R, or vector as indicated. Cells were treated with 1 μg/ml insulin for 10 minutes prior to harvesting in PBS + 0.5% NP-40 + protease and phosphatase inhibitors. 125 μg of lysate per sample was immunoprecipitated using 0.5 μg/sample of anti-HA High-Affinity (Roche, Basel Switzerland). Beads from immunoprecipitations were washed three times in lysis buffer and once in kinase buffer, and kinase assays were performed with recombinant GST-S6 as substrate (1 μg per assay). In the indicated lanes varying doses of resveratrol or DMSO control were added to the reaction prior to addition of the GST-S6 substrate. All samples were subjected to SDS-PAGE, and 32P incorporation was quantified by using a Bio-Rad (Hercules, CA) Phosphor-Imager and subsequent analysis with ImageJ (NIH).  Figure 4. Resveratrol inhibits S6K1 in vitro. (A) Structural similarity between resveratrol and quercetin, a known kinase inhibitor. (B) Kinase inhibition profile for resveratrol at 20 μM obtained using KinaseProfiler™ (Upstate). Dashed line represents 100% activity as compared to control. Black filled-in bar on the graph indicates S6K1. Complete data set is provided in Supplementary Table 1. Error bars represent s.d.m. (C) Phosphorylation of recombinant GST-tagged S6 by immunoprecipitated HA-S6K1 under increasing concentrations of resveratrol (Res). Autoradiograph depicts S6K1 phosphorylation of GST-S6. (D) Average of three separate kinase assay experiments as performed in (C). Densitometry was performed using NIH ImageJ. Error bars represent s.e.m. […] Therefore, we hypothesized that the effect of resveratrol on autophagy could be related to inhibition of one or more upstream kinases. To test this, we performed an in vitro kinase screen and determined an inhibition profile for resveratrol. […] With the exception of S6K1, these kinases play primary roles in the hematopoietic system, and were thus viewed as unlikely to have been responsible for the effect we were studying. […] On the other hand, S6K1 is known to play a requisite role in the regulation of autophagy in Drosophila, making it a promising candidate for the in vivo target of resveratrol that is responsible for inhibition of autophagy.

PKCα(h) = target: T1, PKCα(h) (Homo sapiens, UniProt P17252)
T1 construct: gene PRKCA
Method: as §1

ZAP-70(h) = target: T2, ZAP-70(h) (Homo sapiens, UniProt P43403)
T2 construct: gene ZAP70
Method: as §1

SAPK2a(h) = target: T3, SAPK2a(h) (Homo sapiens, UniProt Q16539)
T3 construct: gene MAPK14
Method: as §1

Ros(h) = target: T4, Ros(h) (Homo sapiens, UniProt P08922)
T4 construct: gene ROS1
Method: as §1

PAK6(h) = PAK6(h) (Homo sapiens, UniProt Q9NQU5)
Method: as §1

PKCγ(h) = target: T5, PKCγ(h) (Homo sapiens, UniProt P05129)
T5 construct: gene PRKCG
Method: as §1

CDK5/p25(h) = target: T6, CDK5/p25(h) (Homo sapiens, UniProt Q00535)
T6 construct: p25
Method: as §1

Pim-2 = target: T7, Pim-2 (Homo sapiens, UniProt Q9P1W9)
T7 construct: gene PIM2
Method: as §1

cKit(h) = target: T8, cKit(h) (Homo sapiens, UniProt P10721)
T8 construct: gene KIT
Method: as §1

IRR(h) = target: T9, IRR(h) (Homo sapiens, UniProt P14616)
T9 construct: gene INSRR
Method: as §1

CDK1/cyclinB(h) = CDK1/cyclinB(h) (Homo sapiens, UniProt P06493)
Method: as §1

PKBγ(h) = target: T10, PKBγ(h) (Homo sapiens, UniProt Q9Y243)
T10 construct: gene AKT3
Method: as §1

cSRC(h) = target: T11, cSRC(h) (Homo sapiens, UniProt P12931)
T11 construct: gene SRC
Method: as §1

PKBß(h) = target: T12, PKBß(h) (Homo sapiens, UniProt P31751)
T12 construct: gene AKT2
Method: as §1

Flt1(h) = Flt1(h) (Homo sapiens, UniProt P17948)
Method: as §1

PAK2(h) = PAK2(h) (Homo sapiens, UniProt Q13177)
Method: as §1

IGF-1R(h) = target: T13, IGF-1R(h) (Homo sapiens, UniProt P08069)
T13 construct: gene IGF1R
Method: as §1

T3 sequence (Q16539 whole entry): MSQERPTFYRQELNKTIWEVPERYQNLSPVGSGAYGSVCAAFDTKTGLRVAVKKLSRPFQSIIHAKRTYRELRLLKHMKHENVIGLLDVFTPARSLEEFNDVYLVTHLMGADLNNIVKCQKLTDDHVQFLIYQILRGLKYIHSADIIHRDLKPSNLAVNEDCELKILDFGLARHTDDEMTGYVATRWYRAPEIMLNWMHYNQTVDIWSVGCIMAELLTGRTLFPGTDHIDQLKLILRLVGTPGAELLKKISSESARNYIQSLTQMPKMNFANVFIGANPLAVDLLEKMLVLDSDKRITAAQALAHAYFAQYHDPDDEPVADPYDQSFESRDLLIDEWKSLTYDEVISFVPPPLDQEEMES
T2 sequence (P43403 whole entry): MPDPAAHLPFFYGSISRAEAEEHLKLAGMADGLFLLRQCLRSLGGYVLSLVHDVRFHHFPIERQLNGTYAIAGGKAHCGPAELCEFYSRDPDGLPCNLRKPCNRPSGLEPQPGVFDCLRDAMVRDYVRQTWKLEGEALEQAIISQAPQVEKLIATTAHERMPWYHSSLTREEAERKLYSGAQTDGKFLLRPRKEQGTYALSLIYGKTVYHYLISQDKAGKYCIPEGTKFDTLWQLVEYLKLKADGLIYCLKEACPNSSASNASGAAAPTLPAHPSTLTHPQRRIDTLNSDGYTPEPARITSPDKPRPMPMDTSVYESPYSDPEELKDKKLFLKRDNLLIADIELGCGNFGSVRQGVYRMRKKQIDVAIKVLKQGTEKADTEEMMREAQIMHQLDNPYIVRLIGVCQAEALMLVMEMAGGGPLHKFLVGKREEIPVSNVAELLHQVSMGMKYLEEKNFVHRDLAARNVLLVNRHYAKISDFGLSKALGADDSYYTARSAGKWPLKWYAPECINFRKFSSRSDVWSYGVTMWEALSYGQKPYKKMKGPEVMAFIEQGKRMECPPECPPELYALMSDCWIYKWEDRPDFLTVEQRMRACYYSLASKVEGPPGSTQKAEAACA
T12 sequence (P31751 whole entry): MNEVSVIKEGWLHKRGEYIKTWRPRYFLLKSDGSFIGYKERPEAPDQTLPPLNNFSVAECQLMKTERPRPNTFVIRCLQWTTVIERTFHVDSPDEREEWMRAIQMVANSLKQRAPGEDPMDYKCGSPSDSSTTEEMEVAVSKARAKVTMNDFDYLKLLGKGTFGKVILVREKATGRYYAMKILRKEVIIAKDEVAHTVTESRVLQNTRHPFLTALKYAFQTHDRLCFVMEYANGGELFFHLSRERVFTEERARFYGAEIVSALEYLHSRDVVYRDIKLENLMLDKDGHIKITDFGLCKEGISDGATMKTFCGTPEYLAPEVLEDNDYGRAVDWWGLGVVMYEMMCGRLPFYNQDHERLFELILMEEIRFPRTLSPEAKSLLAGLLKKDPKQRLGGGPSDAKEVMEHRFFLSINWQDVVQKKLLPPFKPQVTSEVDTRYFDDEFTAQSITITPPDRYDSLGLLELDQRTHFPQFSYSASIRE
Chain of CDK1/cyclinB(h) (P06493 whole entry): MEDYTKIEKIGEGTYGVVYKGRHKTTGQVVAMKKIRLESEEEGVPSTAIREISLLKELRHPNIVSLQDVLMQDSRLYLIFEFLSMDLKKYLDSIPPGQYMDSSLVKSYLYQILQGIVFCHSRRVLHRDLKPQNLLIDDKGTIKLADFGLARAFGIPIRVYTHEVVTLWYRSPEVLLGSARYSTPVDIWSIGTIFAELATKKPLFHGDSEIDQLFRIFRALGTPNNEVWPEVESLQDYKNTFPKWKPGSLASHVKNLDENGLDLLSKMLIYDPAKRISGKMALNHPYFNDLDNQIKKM
Chain of CDK1/cyclinB(h) (P14635 whole entry partner): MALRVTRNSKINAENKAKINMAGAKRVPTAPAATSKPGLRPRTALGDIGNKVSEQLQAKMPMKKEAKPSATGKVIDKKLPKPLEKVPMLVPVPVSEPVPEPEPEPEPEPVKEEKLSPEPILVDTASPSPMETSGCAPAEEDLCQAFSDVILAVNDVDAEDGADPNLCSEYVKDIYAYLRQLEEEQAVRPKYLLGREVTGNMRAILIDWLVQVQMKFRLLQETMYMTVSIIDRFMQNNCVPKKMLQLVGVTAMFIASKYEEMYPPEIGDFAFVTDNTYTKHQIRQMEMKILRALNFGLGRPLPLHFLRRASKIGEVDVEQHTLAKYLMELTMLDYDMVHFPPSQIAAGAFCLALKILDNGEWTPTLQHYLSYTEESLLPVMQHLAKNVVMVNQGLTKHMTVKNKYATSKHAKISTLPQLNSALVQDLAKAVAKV
Chain of PAK6(h) (Q9NQU5 whole entry): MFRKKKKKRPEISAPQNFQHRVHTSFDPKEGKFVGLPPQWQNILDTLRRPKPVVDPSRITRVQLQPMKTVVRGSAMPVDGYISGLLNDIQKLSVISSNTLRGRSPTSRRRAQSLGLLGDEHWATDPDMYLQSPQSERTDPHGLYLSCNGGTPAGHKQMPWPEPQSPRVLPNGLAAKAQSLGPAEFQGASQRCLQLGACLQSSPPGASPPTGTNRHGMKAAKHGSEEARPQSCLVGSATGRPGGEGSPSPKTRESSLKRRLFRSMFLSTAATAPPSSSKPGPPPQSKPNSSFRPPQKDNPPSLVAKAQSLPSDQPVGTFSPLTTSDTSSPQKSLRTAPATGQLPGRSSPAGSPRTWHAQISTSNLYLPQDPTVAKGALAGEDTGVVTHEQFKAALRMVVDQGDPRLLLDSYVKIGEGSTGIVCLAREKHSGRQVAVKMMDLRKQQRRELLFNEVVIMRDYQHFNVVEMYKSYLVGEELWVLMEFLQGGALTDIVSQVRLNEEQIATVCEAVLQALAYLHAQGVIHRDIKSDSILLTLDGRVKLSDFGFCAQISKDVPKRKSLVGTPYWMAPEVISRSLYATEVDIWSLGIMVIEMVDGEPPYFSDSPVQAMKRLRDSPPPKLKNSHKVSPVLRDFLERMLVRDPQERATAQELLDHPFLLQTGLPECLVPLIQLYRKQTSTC
T6 sequence (Q00535 whole entry): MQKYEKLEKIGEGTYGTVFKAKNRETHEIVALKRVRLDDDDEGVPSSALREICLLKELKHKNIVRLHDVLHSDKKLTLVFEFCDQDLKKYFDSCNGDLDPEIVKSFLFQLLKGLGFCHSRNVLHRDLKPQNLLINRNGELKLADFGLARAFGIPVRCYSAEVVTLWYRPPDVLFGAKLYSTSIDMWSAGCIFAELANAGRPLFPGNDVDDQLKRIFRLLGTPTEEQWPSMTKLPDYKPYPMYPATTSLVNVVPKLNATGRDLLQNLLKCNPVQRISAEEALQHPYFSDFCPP
T6 sequence (Q15078 whole entry partner): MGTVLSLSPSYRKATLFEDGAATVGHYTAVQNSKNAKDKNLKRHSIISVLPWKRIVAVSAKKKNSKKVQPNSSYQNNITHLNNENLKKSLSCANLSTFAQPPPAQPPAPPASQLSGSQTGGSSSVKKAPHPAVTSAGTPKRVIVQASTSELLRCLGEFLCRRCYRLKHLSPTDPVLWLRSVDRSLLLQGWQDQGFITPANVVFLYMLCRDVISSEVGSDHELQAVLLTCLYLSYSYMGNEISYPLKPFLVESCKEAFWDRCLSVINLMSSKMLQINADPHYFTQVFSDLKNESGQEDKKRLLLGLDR
T10 sequence (Q9Y243 whole entry): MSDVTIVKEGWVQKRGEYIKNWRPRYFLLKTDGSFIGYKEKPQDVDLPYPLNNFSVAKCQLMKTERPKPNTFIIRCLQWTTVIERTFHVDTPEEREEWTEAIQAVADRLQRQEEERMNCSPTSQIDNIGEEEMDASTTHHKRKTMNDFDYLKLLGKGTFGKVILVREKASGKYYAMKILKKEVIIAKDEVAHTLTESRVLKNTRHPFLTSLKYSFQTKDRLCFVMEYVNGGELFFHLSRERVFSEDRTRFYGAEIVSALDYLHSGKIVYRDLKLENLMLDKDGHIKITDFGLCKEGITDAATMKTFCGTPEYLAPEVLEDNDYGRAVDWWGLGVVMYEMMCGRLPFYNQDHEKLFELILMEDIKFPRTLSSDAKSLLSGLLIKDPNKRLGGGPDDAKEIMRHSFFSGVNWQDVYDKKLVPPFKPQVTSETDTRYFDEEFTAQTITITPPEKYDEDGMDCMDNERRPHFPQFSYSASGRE
T7 sequence (Q9P1W9 whole entry): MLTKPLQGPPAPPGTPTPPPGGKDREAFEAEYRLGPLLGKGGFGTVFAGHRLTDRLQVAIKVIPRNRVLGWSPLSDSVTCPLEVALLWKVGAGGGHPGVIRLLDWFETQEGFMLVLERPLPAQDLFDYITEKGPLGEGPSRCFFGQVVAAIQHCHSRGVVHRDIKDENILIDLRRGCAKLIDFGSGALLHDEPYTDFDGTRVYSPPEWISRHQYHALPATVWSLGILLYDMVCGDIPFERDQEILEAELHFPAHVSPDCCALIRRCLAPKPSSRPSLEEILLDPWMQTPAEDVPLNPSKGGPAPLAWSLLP

Compound: Oc1ccc(/C=C/c2cc(O)cc(O)c2)cc1 [Res, resveratrol]
- remaining activity at 20 µM (TBK1(h)): 62 ± 4%
- remaining activity at 20 µM (PKCα(h)): 114 ± 9%
- remaining activity at 20 µM (ZAP-70(h)): 141 ± 2%
- remaining activity at 20 µM (SAPK2a(h)): 100 ± 4%
- remaining activity at 20 µM (Ros(h)): 102 ± 4%
- remaining activity at 20 µM (PAK6(h)): 103 ± 3%
- remaining activity at 20 µM (PKCγ(h)): 80 ± 8%
- remaining activity at 20 µM (CDK5/p25(h)): 64 ± 4%
- remaining activity at 20 µM (Pim-2): 14 ± 2%
- remaining activity at 20 µM (cKit(h)): 68%
- remaining activity at 20 µM (IRR(h)): 40%
- remaining activity at 20 µM (CDK1/cyclinB(h)): 67 ± 3%
- remaining activity at 20 µM (PKBγ(h)): 89 ± 4%
- remaining activity at 20 µM (cSRC(h)): 61 ± 1%
- remaining activity at 20 µM (PKBß(h)): 105 ± 3%
- remaining activity at 20 µM (Flt1(h)): 52 ± 1%
- remaining activity at 20 µM (PAK2(h)): 98 ± 4%
- remaining activity at 20 µM (IGF-1R(h)): 75%
